Columns and labels:
[1] = tested on: methicillin-resistant Staphylococcus aureus (MRSA) O-271 strain; assay: Rabbit ocular infection: viable bacterial number in corneal and conjunctival tissues; format: in vivo, Japanese White Rabbits; conditions: for Viable Bacterial Number (CFU/Cornea): 52 hours after inoculation, average
Experimental: (§1) The subject substances used for the test include […], 0.3 w/v % and 0.5 w/v % gatifloxacin eye drops. The control substances used include a 0.3 w/v % ofloxacin eye drop, a 0.5 w/v % levofloxacin eye drop and a physiological saline.
(§2) Japanese White Rabbits (male, 1.74 to 2.30 kg in weight) were generally anesthetized, and then 30 μL of 3.1×10^5 CFU/mL methicillin-resistant Staphylococcus aureus (MRSA) O-271 strain suspension was injected into a corneal stroma of each rabbit via a 27 gauge injection needle attached to a 100 μL microsyringe.
(§3) Five hours and 24 hours after the bacterial inoculation, 50 μL of each test substance was instillated into the rabbit eye using a micropipet. In the observation carried out 8, 16, 24, 32, and 48 hours after the bacterial inoculation, symptoms such as opacity of cornea, and redness and edema of conjunctiva were observed and scored based on the criteria as shown in Table 1. Each rabbit was sacrificed 52 hours after the bacterial inoculation, and then the eyeball was enucleated and cornea and conjunctiva were cut out. These tissue sections were morcellated in 2 mL of a physiological saline, diluted, and plated onto a Mueller-Hinton agar medium, and then the viable bacterial number was determined by counting the colonies formed after 48 hours.

[2] = tested on: TNF-alpha production by lipopolysaccharide-stimulated macrophages; assay: Effect on TNF-alpha production by lipopolysaccharide-stimulated macrophages (ELISA); format: cell-based, C3H/HeNCrj mice; conditions: five-hour culture
Experimental: Effect on TNF-Alpha Production by Lipopolysaccharide-Stimulated Macrophages Gatifloxacin was added to a culture medium at a concentration of 1, 10, or 100 μg/mL. One mL of 3% thioglycolate culture medium (Sigma) was intraperitoneally administered to C3H/HeNCrj mice (male, 11 weeks old) to induce macrophages. Six days after the administration, the animals were sacrificed, and then 10 mL of sterile RPMI 1640 (GIBCO BRL; 10% FBS-RPMI) containing 100 U/mL penicillin-100 μg/mL streptomycin (GIBCO BRL) and 10 v/v % fetal bovine serum (FBS) was intraperitoneally injected. After gentle massage of the abdomen, the 10% FBS-RPMI was collected from the abdomen cavity. After the collected 10% FBS-RPMI was centrifuged, the supernatant was removed and the peritoneal exudate cells including macrophages were harvested. The harvested peritoneal exudate cells were suspended in 10% FBS-RPMI at a concentration of […], and the suspension was plated in each well of a 24-well plate. After incubation for 1.5 hours, non-adherent cells were washed out with 10% FBS-RPMI, and macrophages adhering to the plate were obtained. […] Each content of TNF-alpha in the culture supernatant was determined by using an enzyme immunoassay (ELISA).

[3] = tested on: methicillin-resistant Staphylococcus aureus (MRSA) O-271 strain ocular infection; assay: Rabbit ocular infection: scoring of corneal and conjunctival findings; format: in vivo, Japanese White Rabbits
Experimental: Antiinflammatory Effects on Rabbit Ocular Infection
as §1, §2, §3

SMILES | Viable Bacterial Number (CFU/Cornea) ([1]; 0.3% eye drop) | concentration significantly suppressing the increase in TNF-alpha content ([2]; in combination with LPS 1 μg/mL, Williams' test) [µg/mL] | inhibition of LPS-stimulated TNF-alpha production (TNF-alpha content of culture supernatant) ([2]; mouse peritoneal macrophages, LPS 1 μg/mL, gatifloxacin 1, 10 or 100 μg/mL) | Viable Bacterial Number (CFU/Cornea) ([1]; 0.1% eye drop) | viable bacterial number in the corneal tissue (in words) ([1]; 0.1, 0.3 and 0.5 w/v % eye drop groups) | Viable Bacterial Number (CFU/Cornea) ([1]; 0.5% eye drop) | viable bacterial number in the corneal tissue (in words) ([1]; 0.5 w/v % eye drop) | symptoms of the corneal infection (total cornea score) ([3]; 0.1, 0.3 and 0.5 w/v % eye drops, 50 μL at 5 and 24 h after inoculation, observed until 48 hours) | conjunctival findings (total conjunctiva score) ([3]; 0.3 w/v % and 0.5 w/v % eye drops, after 32 hours) | conjunctival findings (total conjunctiva score) ([3]; 0.5 w/v % eye drop, after 48 hours) | symptoms of the corneal infection (total cornea score) ([3]; 0.5 w/v % eye drop, until 48 hours after inoculation) | symptoms of the corneal infection (total cornea score), comparison with ofloxacin ([3]; eye drop concentration of 0.3 w/v % or more, vs 0.3 w/v % ofloxacin eye drop)
CC1COc2c(N3CCN(C)CC3)c(F)cc3c(=O)c(C(=O)O)cn1c23 (centres unmarked) [Ofloxacin] | 2.0 × 10^5 CFU/Cornea | – | – | – | – | – | – | – | – | – | – | –
COc1c(N2CCNC(C)C2)c(F)cc2c(=O)c(C(=O)O)cn(C3CC3)c12 (racemic) [Gatifloxacin, (±)-1-cyclopropyl-6-fluoro-1,4-dihydro-8-methoxy-7-(3-methyl-1-piperazinyl-4-oxo-3-quinolinecarboxylic acid] | 1.1 × 10^3 CFU/Cornea | ≥ 1 | dose-dependently inhibited | 1.3 × 10^4 CFU/Cornea | decreased dose-dependently | 3.9 × 10^2 CFU/Cornea | greatly decreased | dose-dependently inhibited | stronger inhibitory effect than the ofloxacin or the levofloxacin eye drop group | significantly stronger inhibitory effect than the 0.5 w/v % levofloxacin eye drop group | strong inhibitory effect | stronger inhibitory effect than the 0.3 w/v % ofloxacin eye drop group
C[C@H]1COc2c(N3CCN(C)CC3)c(F)cc3c(=O)c(C(=O)O)cn1c23 [Levofloxacin] | – | – | – | – | – | 4.4 × 10^2 CFU/Cornea | – | – | – | – | – | –
